Measured values reported in publication PMC11675580, “Supersaturated Gel Formulation (SGF) of Atorvastatin at a Maximum Dose of 80 mg with Enhanced Solubility, Dissolution, and Physical Stability” (Gels, 2024).

Assay: Drug release kinetics (first-order fit)
Format: physicochemical
Text: The drug release data was fitted to kinetic models of first-order, and the coefficient of determination (r^2) was indicative of best-fit model to describe drug release kinetics.

Which “Drug release rate constant (first-order rate constant, K1)” value (“Drug release rate constant” below) (Water, release data until 30 min) does the source give for `CC(C)c1c(C(=O)Nc2ccccc2)c(-c2ccccc2)c(-c2ccc(F)cc2)n1CC[C@@H](O)C[C@@H](O)CC(=O)O` [ATR, Atorvastatin calcium trihydrate] here?
The value was 1.092.

What about the “Drug release rate constant” value (pH 1.2, release data until 30 min) of the same compound?
The value was 0.608.

And the “Drug release rate constant” value (pH 4.0, release data until 30 min)?
Its value is 0.752.

What about the “Drug release rate constant” value (pH 6.8, release data until 30 min) of the same compound?
Its value is 1.040.
